Measured values taken from US9173923B2, “Modulating innate immune cell activity by lunasin and selected cytokines” (Indiana University Research & Technology Corporation, priority 2011, dated 2015).

Columns and labels:
[1] = tested on: peripheral blood mononuclear cells (PBMCs); CD3 negative and CD56 positive NK cell populations; experiment: Intracellular cytokine staining of IFNγ in stimulated PBMCs of normal controls (flow cytometry); type: cell-based, human; conditions: 1 day
Protocol: (§1) FIG. 1 IFNγ production by primary NK cells following stimulation. Human primary NK cells were isolated from peripheral blood mononuclear cells (PBMCs) of normal controls using positive selection with CD56 magnetic beads (Miltenyi Biotec Auburn. CA). […] At the last 6 hrs of stimulation, golgistop (monensin) was added to block the secretion of IFNγ. Stimulated PBMCs were surface stained with FITC-conjugated CD3 and PE-congugated CD56 monoclonal antibodies (BD), washed, fixed, and permeabilized. After washing, cells were incubated with APC-conjugated anti IFNγ monoclonal antibody. Expression of IFNγ was evaluated on 5000 events of gated CD3 negative and CD56 positive NK cell populations. The % of NK populations producing IFNγ is labeled at the upper right quadrant of the dot plot. (B) IFNγ production in the supernatants. […] The cell pellets from (B) were analyzed for gene expression using qPCR with Taqman Assay primers. […]
Following 1 day of stimulation, distinct cell populations that respond to stimulation were evaluated using intracellular cytokine staining for IFNγ production. […]
Aliquots of PBMCs isolated from healthy volunteer donors were cryopreserved in liquid nitrogen for the following assays. […] Expression of IFNγ was evaluated on 5000 events of gated CD3 negative and CD56 positive NK cell populations. […] The cell pellets were analyzed for gene expression using qPCR with Taqman Assay primers. […]

human primary NK cells [2] = experiment: IFNγ production in supernatants of purified NK cells (ELISA); type: cell-based; conditions: 1 day
Protocol: as §1
FIG. 7 Dose-dependent effects of lunasin on IFNγ production, Human NK cells isolated as described in FIG. 1 were stimulated with IL-12 at 1 or 10 ng/ml in the absence (A) or presence (B) of various concentrations of lunasin. One day following stimulation, The production of IFNg in the supernatants was determined using ELISA. […]
One day following stimulation. The production of IFNg in the supernatants was determined using ELISA. […]

human primary NK cells [3] = experiment: Gene expression by primary NK cells (real time qPCR, Taqman Assay); type: cell-based
Source text: FIG. 3 Synergistic effects of lunasin and cytokines on gene expression by human primary NK cells. […] One day following the stimulation, the cell pellets were resuspended in Trizol Reagents for total RNA extraction. The first-strand cDNA was synthesized followed by real time qPCR using Taqman Assay with primers for IFNγ(IFNG), granzyme B (GZMB), granulysin (GNLY), chemokine (C-C motif) ligand 3 or CCL3 (CCL3), CCL4 (CCL4). Granulocyte-macrophage colony-stimulating factor or GM-CSF (CSF2) TGFβ (TGFB) and TGFβ receptor (TGFBR2) in ABI 7300 (Applied Biosystems by Life Technologies, Carlsbad CA) Data are presented as mean±SD from 2 duplicates. Results shown are representative over 5 different normal controls. […]
One day following the stimulation, the cell pellets were resuspended in Trizol Reagents for total RNA extraction. The first-strand cDNA was synthesized followed by real time qPCR using Taqman Assay with primers for IFNγ (IFNG), granzyme B (GZMB), granulysin (GNLY), chemokine (C-C motif) ligand 3 or CCL3 (CCL3), CCL4 (CCL4), Granulocyte-macrophage colony-stimulating factor or GM-CSF (CSF2), TGFβ (TGFB) and TGFβ receptor (TGFBR2) in ABI 7300 (Applied Biosystems by Life Technologies, Carlsbad, Calif.). Data are presented as mean±SD from duplicates. Results shown are representative over 5 different normal controls.
Following 1, 2, and 3 days of stimulation, the cell pellets were lysed in Trizol Reagents for total RNA extraction. The first-strand cDNA was synthesized followed by real time qPCR using Taqman Assay with primer for TGFB1 and TGFBR2 in ABI 7300. Results are presented as mean±SD from duplicates. […]
Freshly isolated human NK cells from peripheral blood mononuclear cells (PBMCs) of normal control using positive selection with CD56 magnetic beads (Miltenyi Biotec, Auburn, Calif.) were stimulated with medium only (−), IL-12 (10 ng/ml) or IL-12 (10 ng/ml)+lunasin (5 μM) for 1 day. The cell pellets were lysed in Trizol Reagents for total RNA extraction. The first-strand cDNA was synthesized followed by real time qPCR using Taqman Assay with primer for inhibitory receptors KIR3DL1 (upper panel) and KIR3DL2 (lower panel) in ABI 7300.

[4] = tested on: NK cells isolated from lungs; experiment: Ifng gene expression in lung NK cells of mice gavaged with lunasin; type: in vivo, Balb/c mice; conditions: 4 mg lunasin by gavage for 3 consecutive days
Protocol: FIG 24 Gene expression of Ifng from mice treated with lunasin. Balb/c mice were gavaged with […] of water only (H2O) or 4 mg of lunasin in […] water (Lunasin) for 3 consecutive days. One day after the last gavage. mice were sacrificed to collect the lungs. NK cells were isolated from lungs of each mouse using positive selection with DX5 magnetic beads (Miltenyi Biotec) followed by RNA extraction, cDNA synthesis and real time qPCR using Taqman assay primers (ABI). Gene expression for IFNg (Ifng) from lungs is presented as mean±SD from 2 mice in each group.
Balb/c mice were gavaged with 200 μl of water only (H2O) or 4 mg of lunasin in 200 μl water (Lunasin) for 3 consecutive days. One day after the last gavage, mice were sacrificed to collect the lungs and spleens. NK cells were isolated from each lung and spleen using positive selection with DX5 magnetic beads (Miltenyi Biotec) followed by RNA extraction, cDNA synthesis and real tune qPCR using Taqman assay primers (ABE). Gene expression for Ifng from lungs (upper panel) and spleens (lower pannel) is presented as mean±SD from 2 mice in each group.

allergic inflammation = experiment: LPS-induced asthma mouse model; type: in vivo, BABL/c mice
Protocol: FIG. 25 Lunasin-treated mice have reduced allergic inflammation in a mouse model of asthma. In LPS-induced asthma model BABL/c mice were sensitized intranasally with 0.1 μg of LPS at day 0, 1, and 2 with (LS) or without (Ctrl) lunasin peptide at 4 mg, and then challenged with 50 μg of OVA on days 19, 20 and 21. Another group of mice (LC) was sensitized as the Ctrl group followed by challenging with OVA in the presence of lunasin at 4mg. The total cell numbers (A) and differential cell numbers of eosinophils (B) were counted from the BAL fluid. Data are presented as mean±SD from 3 mice in each group. *,P<0.05; ns not-significant p>0.05. (C) Cells from draining lympho nodes (mediastinal) were stimulated with OVA, and the levels of IL-4 production in the supernatants were evaluated using ELISA. Data are presented as mean ±SD from 3 mice in each group. ***, P<0.005; ns, not-significant, p>0.05.
In LPS-induced asthma model, BABL/c mice were sensitized intranasally with 0.1 μg of LPS at day 0, 1, and 2 with (LS) or without (Ctrl) lunasin peptide at 4 mg, and then challenged with 50 ug of OVA on days 19, 20, and 21. […] The total cell numbers (A) and differential cell numbers of eosinophils (B) were counted from the BAL fluid. […] (C) Cells from draining lympho nodes (mediastinal) were stimulated with OVA, and the levels of IL-4 production in the supernatants were evaluated using ELISA. […]

[5] = cited from earlier work
[6] = tested on: acetylation of histone H3 and H4; conditions: extracted from autoclaved soybean products or blood of rats fed LES; cited from earlier work
[7] = boiling; cited from earlier work
mouse NK cells = experiment: IFNγ produced by NK cells from tumor-bearing mice with or without etoposide chemotherapy (ELISA); type: cell-based; conditions: reduced Stat4; mouse IL-12 2 ng/ml or human IL-2 50 units/ml, lunasin 20 μM; 1 day
Protocol: Mouse NK cells were positively selected from spleens of tumor-bearing mice with (+Eto) or without (−Eto) chemotherapeutic drug etoposide. Isolated NK cells were stimulated with mouse IL-12 at 2 ng/ml with (+) or without (−) lunasin peptide (A) or human IL-2 at 50 units/ml with (+) or without (−) lunasin at 20 μM (B). The production of IFNγ in the supernatant after 1 day of stimulation was determined using ELISA. Results are presented as mean±SD from 3 mice. ND is not detectable.

Row | Molecule | IFNγ intracellular staining by cell population (NK, CD4 and CD8 T) [1] | production of IFNγ in the supernatants (human primary NK cells [2]) | CCL3 gene expression (human primary NK cells [3]; 1 day) | CCL4 gene expression (human primary NK cells [3]; 1 day) | CSF2 (GM-CSF) gene expression (human primary NK cells [3]; 1 day) | GMT gene expression (human primary NK cells [3]; 1 day, lunasin alone) | IFNG gene expression (human primary NK cells [3]; human cells, qPCR) | gene expression of Ifng in the lung [4] | production of IL-4 (allergic inflammation; draining lymph node cells stimulated with OVA, ELISA) | cell counts in the bronchoalveolar lavage (BAL) fluid (allergic inflammation; lunasin 4 mg intranasal) | distribution of gavaged lunasin ([5]; gavage) | lunasin levels in the blood after oral consumption ([5]; oral) | survival of digestion in the gastrointestinal tract ([5]; oral) | bioactivity after autoclaving or feeding (inhibiting acetylation of histone H3 and H4) [6] | heat stability [7] | GZMB (granzyme B) gene expression (human primary NK cells [3]; 1 day, lunasin 20 μM, compared to cytokine alone) | IFNγ production by NK cells from tumor-bearing mice following chemotherapy (+etoposide) (mouse NK cells)
1 | lunasin | NK but not CD4 or CD8 T populations respond | moderate effects | sufficient to up-regulate | sufficient to up-regulate | sufficient to up-regulate | no effects | moderate effects | increased gene expression of Ifng | reduced production of IL-4 | lower cell counts | can be found in the lung and blood | Significant levels of lunasin could be detected in the blood | survives digestion in the gastrointestinal tract | still active | heat-stable |  | 
2 | IL-12 (protein, UniProt P43431 23-215; P43432 23-335, looked up) Interleukin-12 subunit alpha: RVIPVSGPARCLSQSRNLLKTTDDMVKTAREKLKHYSCTAEDIDHEDITRDQTSTLKTCLPLELHKNESCLATRETSSTTRGSCLPPQKTSLMMTLCLGSIYEDLKMYQTEFQAINAALQNHNHQQIILDKGMLVAIDELMQSLNHNGETLRQKPPVGEADPYRVKMKLCILLHAFSTRVVTINRVMGYLSSA Interleukin-12 subunit beta: MWELEKDVYVVEVDWTPDAPGETVNLTCDTPEEDDITWTSDQRHGVIGSGKTLTITVKEFLDAGQYTCHKGGETLSHSHLLLHKKENGIWSTEILKNFKNKTFLKCEAPNYSGRFTCSWLVQRNMDLKFNIKSSSSSPDSRAVTCGMASLSAEKVTLDQRDYEKYSVSCQEDVTCPTAEETLPIELALEARQQNKYENYSTSFFIRDIIKPDPPKNLQMKPLKNSQVEVSWEYPDSWSTPHSYFSLKFFVRIQRKKEKMKETEEGCNQKGAFLVEKTSTEVQCKGGNVCVQAQDRYYNSSCSKWACVPCRVRS |  |  |  |  |  |  |  |  |  |  |  |  |  |  |  | no further induction of GZMB | secreted less IFNγ
